Reference: patent US8883792B2, “Substituted isoquinoline derivative” (D. Western Therapeutics Institute, Inc., priority 2010, dated 2014)
Counter-ions that a name gives are not always drawn.

Tests used:
[1] = test system: rabbits (New Zealand White); experiment: Ocular hypotensive effect in rabbits; format: in vivo, rabbit; conditions: male New Zealand White rabbits, 0.04 mL eye drop, concentration of 1% (w/v) or lower, maximum ocular hypotensive rate vs vehicle-treated contralateral eye
How it was run: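 Male New Zealand White rabbits (3–6 per group) received 0.04 mL compound solution (pH 7.0 phosphate/NaCl vehicle or 2% boric acid) in one eye and vehicle in the other. IOP measured by rebound tonometer before dosing and over time; ocular hypotensive rate taken as treated-eye IOP relative to vehicle-eye IOP.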

[2] = test system: spontaneously hypertensive rats (SHR/Izm); experiment: Blood pressure lowering effect in spontaneously hypertensive rats; format: in vivo; conditions: Rattus norvegicus, ip, male SHR/Izm rats, intraperitoneal, measured over time, read-out: lowered the systolic blood pressures by up to, compared with the value before administration
Procedure: The compound of the present invention was intraperitoneally administered to spontaneously hypertensive rats (SHR/Izm, sex: male, 4 to 6 rats per group) and evaluated for its blood pressure lowering effect. The compounds of Examples 5, 23, 25, 35, 36, 53, 58, 83, 84, 86, 87, and 90 were used as test compounds.
Each test compound was dissolved in saline and diluted to prepare a test compound solution with a predetermined concentration.
The test compound was intraperitoneally administered at a dose of 10 mg/kg to the animals, and their blood pressures and pulse rates were measured over time using Softron Indirect Blood Pressure Meter BP-98A.

In the case of `C[C@H](CNCCCCc1ccccc1)NS(=O)(=O)c1ccc2cnccc2c1` [Example 35, (R)—N-{1-(4-phenylbutylamino)propan-2-yl}isoquinoline-6-sulfonamide dihydrochloride], the Ocular hypotensive activity [1] is reported as “++ (maximum ocular hypotensive rate of 15% or more)” and the inhibition in vivo at 10 mg/kg [2] is reported as ≤ 20%.
With `Cc1ccc(CCNC[C@@H](C)NS(=O)(=O)c2ccc3cnccc3c2)cc1.Cl` [Example 58, (R)—N-{1-(4-methylphenethylamino)propan-2-yl}isoquinoline-6-sulfonamide hydrochloride] the Ocular hypotensive activity [1] was “++ (maximum ocular hypotensive rate of 15% or more)” and the inhibition in vivo at 10 mg/kg [2] was ≥ 30%.
For `C[C@H](CNC[C@@H](O)c1ccsc1)NS(=O)(=O)c1ccc2cnccc2c1.Cl` [Example 90, N—[(R)-1-{(S)-2-hydroxy-2-(thiophen-3-yl)ethylamino}propan-2-yl]isoquinoline-6-sulfonamide hydrochloride], the Ocular hypotensive activity [1] was “++ (maximum ocular hypotensive rate of 15% or more)” and the inhibition in vivo at 10 mg/kg [2] was ≤ 20%.
`C[C@H](CNC[C@@H](O)c1ccccc1)NS(=O)(=O)c1ccc2cnccc2c1.Cl` [Example 83, N—[(R)-1-{(S)-2-hydroxy-2-phenylethylamino}propan-2-yl]isoquinoline-6-sulfonamide hydrochloride] was tested, and the Ocular hypotensive activity [1] was “++ (maximum ocular hypotensive rate of 15% or more)” and the inhibition in vivo at 10 mg/kg [2] was ≥ 30%.
With `C[C@H](CNCCc1ccccc1)NS(=O)(=O)c1ccc2cnccc2c1` [Example 23, (R)—N-{1-(phenethylamino)propan-2-yl}isoquinoline-6-sulfonamide dihydrochloride] the Ocular hypotensive activity [1] was “++ (maximum ocular hypotensive rate of 15% or more)” and the inhibition in vivo at 10 mg/kg [2] was ≥ 30%.
In the case of `C[C@H](CNC[C@@H](O)c1ccc(F)cc1)NS(=O)(=O)c1ccc2cnccc2c1.Cl` [Example 84, N—[(R)-1-{(S)-2-(4-fluorophenyl)-2-hydroxyethylamino}propan-2-yl]isoquinoline-6-sulfonamide hydrochloride], the Ocular hypotensive activity [1] is reported as “++ (maximum ocular hypotensive rate of 15% or more)” and the inhibition in vivo at 10 mg/kg [2] is reported as ≤ 20%.
In the case of `C[C@H](CNCCc1c[nH]c2ccccc12)NS(=O)(=O)c1ccc2cnccc2c1.Cl` [Example 36, (R)—N-[1-{2-(1H-indol-3-yl)ethylamino}propan-2-yl]isoquinoline-6-sulfonamide hydrochloride], the Ocular hypotensive activity [1] is reported as “++ (maximum ocular hypotensive rate of 15% or more)” and the inhibition in vivo at 10 mg/kg [2] is reported as ≥ 30%.
`C[C@H](CNC[C@H](O)c1ccccc1)NS(=O)(=O)c1ccc2cnccc2c1.Cl` [Example 87, N—[(R)-1-{(R)-2-hydroxy-2-phenylethylamino}propan-2-yl]isoquinoline-6-sulfonamide hydrochloride] was tested, and the Ocular hypotensive activity [1] was “++ (maximum ocular hypotensive rate of 15% or more)” and the inhibition in vivo at 10 mg/kg [2] was ≤ 20%.
In the case of `C[C@H](CNC[C@@](C)(O)c1ccccc1)NS(=O)(=O)c1ccc2cnccc2c1.Cl` [Example 86, N—[(R)-1-{(S)-2-hydroxy-2-phenylpropylamino}propan-2-yl]isoquinoline-6-sulfonamide hydrochloride], the Ocular hypotensive activity [1] is reported as “++ (maximum ocular hypotensive rate of 15% or more)” and the inhibition in vivo at 10 mg/kg [2] is reported as ≥ 30%.
For `Cc1ccccc1CCNC[C@@H](C)NS(=O)(=O)c1ccc2cnccc2c1.Cl` [Example 56, (R)—N-{1-(2-methylphenethylamino)propan-2-yl}isoquinoline-6-sulfonamide hydrochloride], the Ocular hypotensive activity [1] was “++ (maximum ocular hypotensive rate of 15% or more)”.
For `C[C@H](CN(CCc1ccccc1)C(=O)CN)NS(=O)(=O)c1ccc2cnccc2c1.Cl` [Example 100, (R)-2-amino-N-[2-(isoquinoline-6-sulfonamido)propyl]-N-phenylethylacetamide hydrochloride], the Ocular hypotensive activity [1] was “++ (maximum ocular hypotensive rate of 15% or more)”.
In the case of `C[C@H](CNCCc1ccc(Br)cc1)NS(=O)(=O)c1ccc2cnccc2c1.Cl` [Example 55, (R)—N-{1-(4-bromophenethylamino)propan-2-yl}isoquinoline-6-sulfonamide hydrochloride], the Ocular hypotensive activity [1] is reported as “++ (maximum ocular hypotensive rate of 15% or more)”.
For `C[C@H](CNCC(=O)c1ccccc1)NS(=O)(=O)c1ccc2cnccc2c1` [Example 104, (R)—N-{1-(2-oxo-2-phenylethylamino)propan-2-yl}isoquinoline-6-sulfonamide dihydrochloride], the Ocular hypotensive activity [1] was “++ (maximum ocular hypotensive rate of 15% or more)”.
For `COc1ccccc1CCNC[C@@H](C)NS(=O)(=O)c1ccc2cnccc2c1` [Example 28, (R)—N-{1-(2-methoxyphenethylamino)propan-2-yl}isoquinoline-6-sulfonamide dihydrochloride], the Ocular hypotensive activity [1] was “++ (maximum ocular hypotensive rate of 15% or more)”.
`C[C@H](CNCCc1ccc(Cl)cc1)NS(=O)(=O)c1ccc2cnccc2c1` [Example 39, (R)—N-{1-(4-chlorophenethylamino)propan-2-yl}isoquinoline-6-sulfonamide dihydrochloride] was tested, and the Ocular hypotensive activity [1] was “++ (maximum ocular hypotensive rate of 15% or more)”.
For `C[C@H](CNCC(C)(C)C)NS(=O)(=O)c1ccc2cnccc2c1` [Example 17, (R)—N-{1-(neopentylamino)propan-2-yl}isoquinoline-6-sulfonamide dihydrochloride], the Ocular hypotensive activity [1] was “++ (maximum ocular hypotensive rate of 15% or more)”.
With `C[C@H](CNCCc1ccncc1)NS(=O)(=O)c1ccc2cnccc2c1` [Example 42, (R)—N-[1-{2-(pyridin-4-yl)ethylamino}propan-2-yl]isoquinoline-6-sulfonamide trihydrochloride] the Ocular hypotensive activity [1] was “+ (maximum ocular hypotensive rate of 5% or more and less than 15%)”.
For `C[C@H](CNCCc1ccccc1)N(CCO)S(=O)(=O)c1ccc2cnccc2c1` [Example 97, (R)—N-(2-hydroxyethyl)-N-{1-(phenethylamino)propan-2-yl}isoquinoline-6-sulfonamide dihydrochloride], the Ocular hypotensive activity [1] was “++ (maximum ocular hypotensive rate of 15% or more)”.
`C[C@H](CNC[C@H](C)c1ccccc1)NS(=O)(=O)c1ccc2cnccc2c1` [Example 25, N—[(R)-1-{(R)-2-phenylpropylamino}propan-2-yl]isoquinoline-6-sulfonamide dihydrochloride] was tested, and the Ocular hypotensive activity [1] was “++ (maximum ocular hypotensive rate of 15% or more)” and the inhibition in vivo at 10 mg/kg [2] was ≥ 30%.
In the case of `COc1ccc(CCNC[C@@H](C)NS(=O)(=O)c2ccc3cnccc3c2)cc1` [Example 30, (R)—N-{1-(4-methoxyphenethylamino)propan-2-yl}isoquinoline-6-sulfonamide dihydrochloride], the Ocular hypotensive activity [1] is reported as “++ (maximum ocular hypotensive rate of 15% or more)”.
For `C[C@H](CNCCc1ccc(-c2ccccc2)cc1)NS(=O)(=O)c1ccc2cnccc2c1` [Example 92, (R)—N-[1-{2-(biphenyl-4-yl)ethylamino}propan-2-yl]isoquinoline-6-sulfonamide dihydrochloride], the Ocular hypotensive activity [1] was “++ (maximum ocular hypotensive rate of 15% or more)”.
With `CCCCCNC[C@@H](C)NS(=O)(=O)c1ccc2cnccc2c1` [Example 19, (R)—N-{1-(pentylamino)propan-2-yl}isoquinoline-6-sulfonamide dihydrochloride] the Ocular hypotensive activity [1] was “++ (maximum ocular hypotensive rate of 15% or more)”.
In the case of `CCCCNC[C@@H](C)NS(=O)(=O)c1ccc2cnccc2c1` [Example 5, (R)—N-{1-(butylamino)propan-2-yl}isoquinoline-6-sulfonamide dihydrochloride], the Ocular hypotensive activity [1] is reported as “++ (maximum ocular hypotensive rate of 15% or more)” and the inhibition in vivo at 10 mg/kg [2] is reported as ≤ 16%.
For `C[C@H](CNCCc1cc2ccccc2[nH]1)NS(=O)(=O)c1ccc2cnccc2c1.Cl` [Example 74, (R)—N-[1-{2-(1H-indol-2-yl)ethylamino}propan-2-yl]isoquinoline-6-sulfonamide hydrochloride], the Ocular hypotensive activity [1] was “++ (maximum ocular hypotensive rate of 15% or more)”.
`C[C@H](CNCCc1cccnc1)NS(=O)(=O)c1ccc2cnccc2c1.Cl` [Example 49, (R)—N-[1-{2-(pyridin-3-yl)ethylamino}propan-2-yl]isoquinoline-6-sulfonamide hydrochloride] was tested, and the Ocular hypotensive activity [1] was “++ (maximum ocular hypotensive rate of 15% or more)”.
With `C[C@H](CNCCc1ccsc1)NS(=O)(=O)c1ccc2cnccc2c1.Cl` [Example 41, (R)—N-[1-{2-(thiophen-3-yl)ethylamino}propan-2-yl]isoquinoline-6-sulfonamide hydrochloride] the Ocular hypotensive activity [1] was “++ (maximum ocular hypotensive rate of 15% or more)”.
`C[C@H](CNCCc1ccc(F)cc1)NS(=O)(=O)c1ccc2cnccc2c1.Cl` [Example 53, (R)—N-{1-(4-fluorophenethylamino)propan-2-yl}isoquinoline-6-sulfonamide hydrochloride] was tested, and the Ocular hypotensive activity [1] was “++ (maximum ocular hypotensive rate of 15% or more)” and the inhibition in vivo at 10 mg/kg [2] was ≥ 30%.
For `C=C(C)CNC[C@@H](C)NS(=O)(=O)c1ccc2cnccc2c1.Cl` [Example 78, (R)—N-{1-(2-methylallylamino)propan-2-yl}isoquinoline-6-sulfonamide hydrochloride], the Ocular hypotensive activity [1] was “++ (maximum ocular hypotensive rate of 15% or more)”.
